# Laboratory results as given in patent publication US11413321B2, “Pharmaceutical composition for use in increasing hair, modifying scalp or skin, healing a wound, promoting osteogenesis, or modifying hair” (priority 2017, dated 2022).
# Tests used:
# Assay type in all cases: in vivo, Wistar rat
# [1] = test system: Cxcr4; experiment: Quantitative PCR of dorsal tissues after subcutaneous administration (Cxcr4); details: 20 μL per location into rat dorsal part; vs control without administration; FIG. 15
# Protocol: (§1) 3.) C—X—C motif chemokine receptor 4 (Cxcr4), Rattus norvegicus: mRNA 1,726 bp NM 022205.3 GI: 82617587 Next, a change in gene expression in tissues was examined. Three regions were set between the head and the tail of the dorsal part of a 12-week-old Wistar rat (male), and each region was divided between the left and the right of the backbone into two regions to set a total of six regions on the dorsal part. Milk or palmitic acid was injected in an amount of 20 μL per location at two locations in the vicinity of the center of each region. The distance between the two locations was 1 cm. The collected tissue fragments were frozen with liquid nitrogen, and stored at −80° C. […] Analysis of gene expression by quantitative PCR was performed in the following manner: Integrated DNA technologies, Inc (Skokie, Ill., USA) was requested to design and synthesize gene-specific primers and probes, and using PrimeTime Gene Expression Master Mix Reagent (Integrated DNA Technologies, Inc, Skokie, Ill., USA) and Rotor-Gene Q PCR Apparatus (QIAGEN GmbH, Hilden, Germany), PCR analysis was performed twice per gene per specimen to analyze the expression level of a target gene. […]
# [2] = test system: CD68-positive cells; experiment: Immunohistological staining of rat dorsal skin after injection of fatty acids (CD68); details: 1 mg fatty acid in 20 μL per location
# Protocol: Next, representative fatty acids contained in milk were administered to a 12-week-old Wistar rat at a plurality of locations on the dorsal skin as in Example 1(2) above, and a change in tissues by the administration was observed after the tissues were subjected to immunohistological staining. More specifically, physiological saline was administered in an amount of 20 μL per location, an administration liquid containing 1 mg of a fatty acid was administered in an amount of 20 μL per location, and a change in CD68-positive macrophage stained images and PPAR-γ-positive cell images by the administration was observed. Samples of the Wistar rat were obtained by sampling administration sites (four weeks after administration and eight weeks after administration). FIGS. 10A to 10G show the results. […] At saturated fatty acid injection sites, infiltration of a large number of CD68-positive cells was observed, and fibrillization of normal tissues was observed. Therefore, in FIGS. 10B to 10D, a change in fat tissues was examined at a location which was closest to the administration site and where normal tissues were maintained (non-fibrillization location).
# [3] = test system: Itga4; experiment: Quantitative PCR of dorsal tissues after subcutaneous administration (Itga4); details: 20 μL per location into rat dorsal part; vs control without administration; FIG. 15
# Protocol: as §1, with “4.) Integrin subunit alpha” for “3.) C—X—C motif chemokine receptor”, “(Itga4),” for “(Cxcr4),”, “3,736” for “1,726”, “001107737.1” for “022205.3”, “157819948” for “82617587”
smiles,measurement,setting,value
CCCCCCCCCCCCCCCC(=O)O [palmitic acid],expression level of Cxcr4 in tissues,[1],greatly increased
same,number of CD68-positive cells at the administration site,[2]; eight weeks after administration,maintained
same,number of CD68-positive cells at the administration site,"[2]; four weeks after administration, vs physiological saline",increased
same,expression level of Itga4 in tissues,[3],greatly increased
